According to ChEMBL document CHEMBL5728983, “Macrocyclic derivative of pyrazol[3,4-d]pyrimidin-3-one, pharmaceutical composition and use thereof” (2022):

Biological target: Wee1-like protein kinase (Homo sapiens, UniProt P30291)
Assay: Enzymatic Activity of Wee1: In the present disclosure, Wee1 enzyme catalysis assay was carried out using the ATP-Glo Max kinase luminescence detection kit (Promega). Kinase activity was assessed by quantitative detection of the amount of ATP retained in the solution following the kinase reaction. The luminescent signal in the assay is proportional to the amount of ATP and inversely proportional to the kinase activity. The concentration of the compound in the assay ranged from 0.5 nM to 30 μM. The compound was dissolved in 10% DMSO, and 5 μL of the solution was added to 50 μL of the reaction, and the concentration of DMSO in the final reaction was 1%. The reaction was carried out at 30° C. for 50 minutes. 40 mM trishydroxymetyl aminomethane, pH 7.4, 10 mM MgCl2, 0.1 mg/ml BSA, 2 mM DTT, 0.1 mg/ml Poly (Lys, Tyr) substrate, 10 μM ATP and Wee1 were contained in the reaction mixture. After the enzymatic reaction, 50 μL of ATP-Glo Max kinase luminescence detection assay solution (Promega) was added and incubated for 15 minutes at room temperature. The luminescent signal was measured using a microplate reader. In some assays, a known Wee1 inhibitor was added as a positive control. Luminance data was analyzed using Graphpad software.

Chain of Wee1-like protein kinase (P30291 whole entry): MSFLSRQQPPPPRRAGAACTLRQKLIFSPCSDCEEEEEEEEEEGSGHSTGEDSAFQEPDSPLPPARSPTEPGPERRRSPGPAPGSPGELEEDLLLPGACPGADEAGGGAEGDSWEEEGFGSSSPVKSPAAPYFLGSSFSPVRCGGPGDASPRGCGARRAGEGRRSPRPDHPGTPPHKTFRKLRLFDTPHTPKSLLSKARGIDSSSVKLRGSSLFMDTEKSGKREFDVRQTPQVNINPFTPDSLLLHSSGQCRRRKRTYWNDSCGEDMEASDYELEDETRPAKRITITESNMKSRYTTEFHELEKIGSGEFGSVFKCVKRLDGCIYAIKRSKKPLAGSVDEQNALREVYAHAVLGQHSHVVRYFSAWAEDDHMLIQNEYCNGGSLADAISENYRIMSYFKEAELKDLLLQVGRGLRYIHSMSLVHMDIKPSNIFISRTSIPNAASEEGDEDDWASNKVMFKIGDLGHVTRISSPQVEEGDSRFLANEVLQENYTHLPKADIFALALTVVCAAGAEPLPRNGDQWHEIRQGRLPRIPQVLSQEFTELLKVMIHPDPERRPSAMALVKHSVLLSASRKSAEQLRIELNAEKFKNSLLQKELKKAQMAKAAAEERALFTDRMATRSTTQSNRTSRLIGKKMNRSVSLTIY

| IC50 | SMILES |
| --- | --- |
| 0.0104 µM | CC(C)N1Cc2cc(Nc3ncc4c(=O)n5n(c4n3)-c3ccc4c(n3)N(CCC/C=C\C5)C(=O)CO4)ccc2C2(CC2)C1 |
| 0.0102 µM | CC(C)N1Cc2ccc(Nc3ncc4c(=O)n5n(c4n3)-c3ccc4c(n3)N(CCC/C=C\C5)C(=O)CO4)cc2C2(CC2)C1 |
